Assay type in all cases: in vivo, Sprague-Dawley rats
Data set [1] can be described thus: Rat plasma metabolite profiles after single oral 5 mg/kg [14C]DCDQ. The settings on record: for concentration at 2 h / concentration at 8 h / concentration at 4 h: Sprague-Dawley, rat, plasma, mean n = 3, read-out: Estimated plasma concentration in rats; for Chromatographic distribution of radioactivity in rat plasma / Estimated plasma concentration in rats: mean n = 3. As to the method: Plasma samples were analyzed for metabolite profiles by HPLC. Aliquots of 1.5 mL plasma were mixed with 3.0 mL methanol, placed on ice for about 10 minutes, and then centrifuged. The supernatant was transferred to a clean tube. The protein pellets were extracted once with 3.0 mL methanol. The supernatants from precipitation and extraction of each sample were pooled, mixed, and evaporated at 22° C. under nitrogen in a Zymark TurboVap LV (Caliper Life Sciences, Hopkinton, Mass.) to about 0.3 mL. The concentrated extract was centrifuged, the supernatant volume measured and extraction efficiency was determined by analyzing duplicate 10 μL aliquots for radioactivity. An aliquot of the supernatant (50-200 μL) was analyzed by HPLC with radioactivity flow detection. Plasma extracts were also analyzed by LC/MS.
(§1) A Waters model 2690 HPLC system (Waters Corp., Milford, Mass.) with a built-in autosampler was used for analysis. Separations were accomplished on a Phenomenex Luna C18(2) column (150×2.0 mm, 5 μm) (Phenomenex, Torrance, Calif.). The sample chamber of the autosampler was maintained at 4° C., while the column was at ambient temperature of about 20° C. A variable wavelength UV detector set to monitor 250 nm and a Flo-One β Model A525 radioactivity detector described above were used for data acquisition. The HPLC mobile phase consisted of 10 mM ammonium acetate, pH 4.5 (A) and methanol (B), and was delivered at 0.2 mL/min. Chromatographic condition A was used for dose analysis, while condition B was used for analysis of urine and plasma, brain and fecal extracts.

Data set [2] can be described thus: Metabolites of DCDQ identified in rats by LC/MS analysis (Table 18). The settings on record: P = plasma, U = urine, B = brain, F = feces. The protocol:
An Agilent Model 1100 HPLC system (Agilent Technologies, Wilmington, Del.) including an autosampler and diode array UV detector was used for LC/MS analysis of plasma and urine samples. The UV detector was set to monitor 200 to 400 nm. For selected LC/MS analyses, radiochromatograms were acquired using a β-Ram model 3 radioactivity flow detector (IN/US Systems Inc., Tampa, Fla.) equipped with a solid scintillant flow cell. Fecal samples were also analyzed using a Waters Alliance model 2690 HPLC system. It was equipped with a built-in autosampler and a model 996 diode array UV detector set to 210-350 nm. The HPLC flow was split between a Radiomatic model 150TR flow scintillation analyzer (Perkin Elmer) and the mass spectrometer. Other HPLC conditions were the same as condition B described above.
The mass spectrometer used for metabolite characterization for plasma and urine was a Micromass Q-TOF-2 quadrupole time-of-flight hybrid mass spectrometer (Waters). The mass spectrometer was equipped with an electrospray ionization (ESI) interface and operated in the positive ionization mode. Collision energy settings of 5 and 30 eV were used for full MS and MS/MS scans, respectively. Settings for the mass spectrometer are listed below.
A Micromass Quattro Micro mass spectrometer (Waters) was also used to analyze the fecal samples. It was equipped with an electrospray ionization (ESI) interface and operated in the positive ionization mode. Settings for the mass spectrometer are listed below.
LC/MS/MS in the selected reaction-monitoring (SRM) mode (LC/SRM) was conducted with the triple quadruple mass spectrometer to monitor DCDQ and its metabolites in fecal samples. The transitions monitored are listed below.

Data set [3] is described as follows: Rat urinary excretion and metabolite profiles after single oral 5 mg/kg [14C]DCDQ. The note with it: oral 5 mg/kg, mean n = 3. The protocol:
(§2) At sacrifice, blood samples were collected by cardiac puncture into tubes containing EDTA as the anticoagulant and placing them on ice. Aliquots of 50 μL were removed for combustion and determination of radioactivity content. Plasma was immediately obtained from the remaining blood by centrifugation at 4° C. Brains were excised after perfusion with 50 mL of chilled sterile saline. Urine samples were collected on dry ice at intervals of 0-8 and 8-24 hour post-dosing. Feces were collected at intervals of 0-8 and 8-24 hr post-dosing at room temperature and were homogenized as described previously. The biological specimens and aliquots of the dosing solution at pre- and post-dose were stored at approximately −70° C. until analyzed.
Plasma (20 μL) and urine (50 μL) aliquots were analyzed for radioactivity concentrations. Radioactivity determinations of dose, plasma and urine were made with a Tri-Carb Model 3100 TR/LL liquid scintillation counter (LSC) (Perkin Elmer) using 10 mL of Ultima Gold as the scintillation fluid.
Urine was analyzed for radioactivity concentration as and analyzed for metabolite profiles by direct injection onto the HPLC column. LC/MS analyses for metabolite identification were also carried out with urine samples.
as §1

Data set [4] can be described thus: Rat fecal excretion and metabolite profiles after single oral 5 mg/kg [14C]DCDQ. The settings on record: male rats, 8-24 hour fecal extracts. As to the method: as §2
Brain and fecal samples were weighed and homogenized in water at volume-to-weight ratios of about 1:1 and 5:1, respectively. Blood aliquots (50 μL), brain homogenates (0.1 gram) and fecal homogenates (0.2 gram) were placed on Combusto-cones with Combusto-pads and combusted. A model 307 Tri-Carb Sample Oxidizer, equipped with an Oximate-80 Robotic Automatic Sampler (Perkin Elmer), was used for combustion. The liberated ^14CO2 was trapped with Carbo-Sorb E carbon dioxide absorber, mixed with PermaFluor® E+ liquid scintillation cocktail, and counted in a Tri-Carb Model 3100 TR/LL liquid scintillation counter (Perkin Elmer). The oxidation efficiency of the oxidizer was 98.2%.
Fecal homogenates were analyzed for metabolite profiles. Aliquots of 1 gram of fecal homogenates were mixed with 2 mL methanol, placed on ice for about 10 minutes and centrifuged. The supernatant was transferred to a clean tube. The residue was extracted three times with 2 mL of a water:methanol (3:7) mixture. The supernatants of each sample were combined, evaporated to about 1 mL, and centrifuged. Extraction efficiency was determined by analyzing aliquots of 10 μL of the supernatant for radioactivity. An aliquot (50-200 μL) of the supernatant was analyzed by HPLC with radioactivity flow detection for profiling. Samples were also analyzed by LC/MS to characterize the radioactive peaks.
as §1, with “Chromatographic condition A was used for dose analysis, while condition B was used for analysis of urine and plasma, brain and fecal extracts.” left out

Data on 5 molecules can be found in patent US20060111305A1, “Metabolites of certain [1,4]diazepino[6,7,1-ij]quinoline derivatives and methods of preparation and use thereof” (Wyeth, priority 2004, published 2006).

Structures can show the parent of a compound that is named as a salt. Where two headings read alike, the source gives them in different places. Marks after values point to notes of the source that are not given here.

In the case of `OC1CNCc2cccc3c2N1C[C@@H]1CCC[C@H]31` (stereo partly drawn) [Metabolite M10, hydroxy DCDQ], the concentration at 2 h was 35.2 ng/mL in data set [1] (female, 2 hr) and 23.7 ng/mL in data set [1] (male, 2 hr). The concentration at 8 h in data set [1] (female, 8 hr) was 18.9 ng/mL; in data set [1] (male, 8 hr) it was 13.2 ng/mL. In addition, the concentration at 4 h in data set [1] (male, 4 hr) was 9.81 ng/mL. For the same molecule, the “Chromatographic distribution of radioactivity in rat plasma” value in data set [1] (female, 2 hr) was 5.2%; in data set [1] (female, 8 hr), 5.6%; in data set [1] (male, 2 hr), 3.6%; in data set [1] (male, 4 hr) it was 1.5%; in data set [1] (male, 8 hr), 3.0%. In data set [2], the Matrix entry is recorded as “U, B, F”. The “Chromatographic distribution of radioactivity in male rat urine” value stood at 3.32% in data set [3] (0-8 hr) and 2.70% in data set [3] (8-24 hr). Moreover, the “Percentage of dose for urinary metabolites in rats” value amounted to 1.08% in data set [3] (0-8 hr), 1.99% in data set [3] (0-24 hr) and 0.91% in data set [3] (8-24 hr).

Consider `CC(=O)N1Cc2cccc3c2N(C[C@@H]2CCC[C@H]32)C(O)C1` (stereo partly drawn) [Metabolite M11, acetylated hydroxy DCDQ], for which the concentration at 2 h was 41 ng/mL in data set [1] (female, 2 hr) and 37.2 ng/mL in data set [1] (male, 2 hr). Also, the concentration at 8 h in data set [1] (female, 8 hr) was 16.6 ng/mL; in data set [1] (male, 8 hr), 16.3 ng/mL. For the same molecule, the concentration at 4 h in data set [1] (male, 4 hr) was 34.5 ng/mL. Also, the “Chromatographic distribution of radioactivity in rat plasma” value is on record as 6.1% in data set [1] (female, 2 hr); 4.9% in data set [1] (female, 8 hr); 6.0% in data set [1] (male, 2 hr); 5.2% in data set [1] (male, 4 hr); 3.6% in data set [1] (male, 8 hr). Besides, the “relative abundance in fecal extracts” value in data set [4] is on record as “major metabolites”. Moreover, the Matrix result in data set [2] is “P, B, F”.

With `O=S(=O)(O)N1CCN2C[C@@H]3CCC[C@@H]3c3cccc(c32)C1` [Metabolite M12, DCDQ sulfamate], the concentration at 2 h in data set [1] (female, 2 hr) was 33.8 ng/mL. The concentration at 8 h in data set [1] (female, 8 hr) was 11.8 ng/mL. Also, the “Chromatographic distribution of radioactivity in rat plasma” value in data set [1] (female, 2 hr) is recorded as 5.2^e %; in data set [1] (female, 8 hr) it was 3.3%; in data set [1] (male, 2 hr), “BQL^c”; in data set [1] (male, 4 hr), “BQL”; in data set [1] (male, 8 hr) it was “BQL”. Further, the “Estimated plasma concentration in rats” value is listed as “BQL^c” in data set [1] (male, 2 hr); “BQL” in data set [1] (male, 4 hr); “BQL” in data set [1] (male, 8 hr). Further, the Matrix result in data set [2] was “P, U”.

Turning to `O=S(=O)(O)OC1CC[C@@H]2c3cccc4c3N(CCNC4)CC12` (stereo partly drawn) [Metabolite M13, 17-hydroxy DCDQ sulfate], the concentration at 2 h in data set [1] (female, 2 hr) is 16.6 ng/mL; in data set [1] (male, 2 hr), 11.6 ng/mL. For the same molecule, the concentration at 8 h in data set [1] (female, 8 hr) is 5.62 ng/mL; in data set [1] (male, 8 hr) it was 6.33 ng/mL. The concentration at 4 h in data set [1] (male, 4 hr) is 14.2 ng/mL. Besides, the “Chromatographic distribution of radioactivity in rat plasma” value in data set [1] (female, 2 hr) is reported as 2.6%; in data set [1] (female, 8 hr), 1.6%; in data set [1] (male, 2 hr) it was 1.9%; in data set [1] (male, 4 hr), 2.2%; in data set [1] (male, 8 hr), 1.4%.

In the case of `O=S(=O)(O)N1CCN2CC3=CCC=C3c3cccc(c32)C1` [Metabolite M14, di-dehydro DCDQ sulfamate], the concentration at 2 h in data set [1] (female, 2 hr) was 25.1 ng/mL. For the same molecule, the concentration at 8 h in data set [1] (female, 8 hr) is 16.5 ng/mL. Further, the “Chromatographic distribution of radioactivity in rat plasma” value is given as 4.0^d % in data set [1] (female, 2 hr); 4.9^d % in data set [1] (female, 8 hr); “BQL” in data set [1] (male, 2 hr); “BQL” in data set [1] (male, 4 hr); “BQL” in data set [1] (male, 8 hr). The “Estimated plasma concentration in rats” value was “BQL” in data set [1] (male, 2 hr); “BQL)” in data set [1] (male, 4 hr); “BQL” in data set [1] (male, 8 hr). Moreover, the Matrix entry in data set [2] is “P, U”.
